Results: patent US7842671B1, “Peptidomimetic inhibitors of STAT activity and uses thereof” (University of South Florida, priority 2003, dated 2010)

How the values were obtained:
Stat1:Stat1 = biological target: T1, Stat1:Stat1 (Mus musculus, UniProt P42225); assay: EMSA of Stat1:Stat1 DNA-binding in nuclear extracts; type: biochemical
T1 construct: nuclear extracts (prepared from epidermal growth factor (EGF)-stimulated fibroblasts); endogenous in cells; host or cells: NIH3T3 fibroblasts stimulated with EGF
T1 sequence (P42225 1-749): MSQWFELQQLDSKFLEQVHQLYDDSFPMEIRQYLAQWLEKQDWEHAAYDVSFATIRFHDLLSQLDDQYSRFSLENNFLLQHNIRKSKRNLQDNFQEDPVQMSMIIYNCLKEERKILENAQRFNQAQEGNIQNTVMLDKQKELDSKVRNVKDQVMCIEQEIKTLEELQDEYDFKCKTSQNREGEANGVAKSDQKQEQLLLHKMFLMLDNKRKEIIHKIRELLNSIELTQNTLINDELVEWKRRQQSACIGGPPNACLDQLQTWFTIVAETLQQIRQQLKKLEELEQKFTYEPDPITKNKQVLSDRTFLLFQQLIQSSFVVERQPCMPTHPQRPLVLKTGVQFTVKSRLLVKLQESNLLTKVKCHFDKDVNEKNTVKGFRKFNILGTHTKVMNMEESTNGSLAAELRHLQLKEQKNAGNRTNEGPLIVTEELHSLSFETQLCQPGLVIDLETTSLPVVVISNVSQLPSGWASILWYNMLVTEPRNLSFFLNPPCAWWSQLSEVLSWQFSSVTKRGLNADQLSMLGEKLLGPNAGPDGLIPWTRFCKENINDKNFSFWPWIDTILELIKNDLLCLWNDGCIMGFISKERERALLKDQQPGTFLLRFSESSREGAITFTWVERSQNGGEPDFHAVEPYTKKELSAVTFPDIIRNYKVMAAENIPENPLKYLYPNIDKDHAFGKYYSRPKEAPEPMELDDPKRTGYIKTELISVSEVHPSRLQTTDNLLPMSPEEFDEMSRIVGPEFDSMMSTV
Description: Nuclear extract preparation and gel shift assays. Nuclear extracts were prepared from cell lines and used for electrophoretic mobility shift assay (EMSA) as previously described (Garcia, R. et al. (1997); Yu, C. L. et al. (1995); Turkson, J. et al. (1998)). In some cases, cells were pre-treated with peptidomimetics for the indicated times (12-48 h) prior to harvesting for nuclear extract preparation. In other studies, nuclear extracts were pre-incubated with peptidomimetics for 30 min at room temperature prior to incubation with radiolabeled probe. The ^32P-radiolabeled oligonucleotide probes used are hSIE (high affinity sis-inducible element, m67 variant, 5′-[…]-3′) (SEQ ID NO. 3) that binds both Stat1 and Stat3 (Garcia, R. et al. (1997); Wagner B. J. et al. (1990)) and MGFe (mammary gland factor element from the bovine β-casein gene promoter, 5′-[…]-3′) (SEQ ID NO. 4) that binds Stat1 and Stat5 (Gouilleux, F. et al. (1995); Seidel, H. M. et al. (1995)).
Peptidomimetics of the invention can be prepared by replacing prolyl or alanyl residue at the peptide bond that is N-terminal to the phosphotyrosine (Y*) of a peptide such as PY*L or AY*L with an organic substituent such as an optionally substituted aryl or heteroaryl group. The activities of STATs were measured in nuclear extracts (prepared from epidermal growth factor (EGF)-stimulated fibroblasts) as DNA-bound protein complexes by electrophoretic mobility shift assay (EMSA). STAT-DNA complexes detected include Stat3:Stat3 homodimers (upper band), Stat1:Stat3 heterodimers (intermediate band) and Stat1:Stat1 homodimers (lower band) (FIG. 1A) when a ^32P-labeled hSIE oligonucleotide probe is used, or Stat5:Stat5 (upper band) and Stat1:Stat1 dimers (lower band) (FIG. 1B) when ^32P-labeled MGFe is used as a probe.

[1] = test system: Stat3-dependent luciferase reporter, pLucTKS3; type: cell-based; settings: 1 mM, Src-transformed mouse cells
Excerpt: (§1) Plasmids. The Stat3 reporter, pLucTKS3, driving expression of the firefly luciferase gene and the Stat3-independent plasmid, pRLSRE, containing two copies of the serum response element (SRE) from the c-fos promoter (Turkson, J. et al. (1998); Zhang, Y. et al. (2000)) that drives renilla luciferase gene (Promega; Madison, Wis.) expression, have been previously described (Turkson, J. et al. (2001); Turkson, J. et al. (1999)).
(§2) Cytosolic extract preparation and luciferase assays. Cytosolic extract preparation from fibroblasts and luciferase assays were previously described (Turkson, J. et al. (1998); Turkson, J. et al. (1999)). Briefly, after two washes with PBS and equilibration for 5 min with 0.5 ml PBS-0.5 mM EDTA, cells were scraped off the dishes and the cell pellet was obtained by centrifugation (4,500×g, 2 min, 4° C.). Cells were resuspended in 0.4 ml of low-salt HEPES buffer (10 mM HEPES (pH 7.8), 10 mM KCl, 0.1 mM EGTA, 0.1 mM EDTA, 1 mM phenylmethylsulfonyl fluoride, and 1 mM dithiothreitol) for 15 min, lysed by the addition of 20 μl of 10% Nonidet P-40 (NP-40), and centrifuged (10,000×g, 30 s, 4° C.) to obtain the cytosolic supernatant, which was used for luciferase assays (Promega) measured with a luminometer. […]

[2] = test system: Stat3-independent luciferase reporter, pRLSRE; type: cell-based; settings: 1 mM, Src-transformed mouse cells
Excerpt: as §1, §2

MDA-MB-231 = type: cell-based, human; settings: 1 mM, MDA-MB-231, four days
Description: (§3) Cell proliferation, soft-agar growth and Apo-BrdU labeling studies. Proliferating fibroblasts and human tumor cells were counted by phase-contrast microscopy for viable cells (using tyrpan blue exclusion). Colony formation assays in six-well dishes and quantification of colonies by iodonitrotetrazolium violet have been previously described (Turkson, J. et al. (1999)). Treatment of cells with inhibitors was initiated 1 day after seeding cells by adding 75 μl of medium with or without inhibitor, and repeated every two to three days. Apoptosis was measured by Apo-BrdU labeling and following the supplier's (PharMingen; San Diego, Calif.) instructions.
(§4) Stat3 has an essential role in cell proliferation, and constitutively-active Stat3 is required for growth of transformed and tumor cells that harbor aberrant Stat3 signaling. Studies were performed to determine the effects of the peptidomimetic-mediated inhibition of Stat3 on cell proliferation using trypan blue exclusion for viable cell counts.

MDA-MB-435 = type: cell-based, human; settings: 1 mM, MDA-MB-435, four days
Description: as §3, §4

MDA-MB-453 = type: cell-based, human; settings: 1 mM
Description: as §3, §4

**Q.** Which results are given for CC(C)CC(NC(=O)C(Cc1ccc(OP(=O)(O)O)cc1)NC(=O)c1ccc(C#N)cc1)C(=O)O (stereo not drawn) [ISS 610]?
**A.** IC50 (Stat1:Stat1): 310 µM; transcriptional induction of the Stat3-dependent luciferase reporter pLucTKS3 [1]: significant suppression; induction of the Stat3-independent luciferase reporter pRLSRE [2]: no effect; cell proliferation (MDA-MB-231): significantly suppresses proliferation; cell proliferation (MDA-MB-435): significantly suppresses proliferation; cell proliferation (MDA-MB-453): no effect on cell proliferation
